For 15 compounds, IC50 results are on record in patent US5169856A, “Piperidinoalkyl derivatives of carboxylic acid amides” (priority 1988, dated 1992).

Structures can show the parent of a compound that is named as a salt.

T1 sequence (P37136 32-614): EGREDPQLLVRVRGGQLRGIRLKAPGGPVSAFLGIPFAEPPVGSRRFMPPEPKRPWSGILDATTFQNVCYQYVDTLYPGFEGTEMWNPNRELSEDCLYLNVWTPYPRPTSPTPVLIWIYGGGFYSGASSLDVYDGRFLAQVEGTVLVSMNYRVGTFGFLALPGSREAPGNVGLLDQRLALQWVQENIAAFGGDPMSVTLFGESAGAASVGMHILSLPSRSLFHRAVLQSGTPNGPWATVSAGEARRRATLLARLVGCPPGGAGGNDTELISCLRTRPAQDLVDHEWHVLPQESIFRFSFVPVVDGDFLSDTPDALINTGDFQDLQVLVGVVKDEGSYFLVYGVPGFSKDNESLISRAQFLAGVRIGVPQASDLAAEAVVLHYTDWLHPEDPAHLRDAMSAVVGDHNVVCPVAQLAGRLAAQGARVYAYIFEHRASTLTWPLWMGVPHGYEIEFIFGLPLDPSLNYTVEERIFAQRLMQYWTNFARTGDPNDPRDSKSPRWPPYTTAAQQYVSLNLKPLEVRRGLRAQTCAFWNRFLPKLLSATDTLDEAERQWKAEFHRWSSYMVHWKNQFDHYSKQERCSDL

This assay addresses T1, acetylcholinesterase (Rattus norvegicus, UniProt P37136).
T1 construct: S1 fraction of the cerebral cortex of male Wistar rats, the enzyme source; from tissue; host or cells: S1 fraction of the cerebral cortex of male Wistar rats
Briefly: Inhibition of cholinesterase activity, radiometric ([acetyl-3H]-acetylcholine), S1 fraction of rat cerebral cortex. As to conditions: 15 min preincubation at room temperature, [acetyl-3H]-acetylcholine final 200 μM, 30 min, read-out: Anti-acetylcholinesterase activity IC50. The assay is classed as biochemical, male Wistar rats. As for the experimental part:
Cholinesterase activity was measured radiometrically by the method of Johnson and Russell^1), modified by Kleinberger and Yanal^2), with a slight modification.
S1 fraction of the cerebral cortex of male Wistar rats, the enzyme source, was preincubated in a scintillation vial with drugs for 15 min at room temperature, and then [acetyl-^3 H]-acetylchollne (final 200 μM) was added and incubated further for 30 min. The reaction was terminated by adding solution containing 1 M chloroacetic acid, followed by toluene-based scintillant, and the vials were capped and shaken to transfer the product, [^3 H]-acetic acid, to toluene phase. Then radioactivity in the toluene phase was counted by liquid scintillation spectrometry. Inhibitory activity of the test drug was expressed by 50%-inhibitory concentration (IC50), which was calculated by linear regression of log-probit transformation of the inhibition curve.
`Cc1ccc(C=CC(=O)NCCC2CCN(Cc3ccccc3)CC2)cc1` [Example 4-11]: the IC50 was determined as 15 µM.

Turning to `O=C(C=Cc1ccc([N+](=O)[O-])cc1)NCCC1CCN(Cc2ccccc2)CC1` [Example 4-8], the IC50 was 2.8 µM.

For the compound `CN(CCC1CCN(Cc2ccccc2)CC1)C(=O)/C=C/c1ccccc1` [Example 2, (E)-3-Phenyl-N-methyl-N-[2-(1-benzylpiperidin-4-yl)ethyl]-2-propenamide.hydrochloride], the IC50 stood at 18 µM.

In the case of `COc1cc2c(cc1OC)CCC(C(=O)NCCC1CCN(Cc3ccccc3)CC1)=C2` [Example 4-7], the IC50 was 1.2 µM.

Regarding `COc1ccc(C=CC(=O)NCCC2CCN(Cc3ccccc3)CC2)cc1OC` [Example 4-6], the IC50 came to 2.6 µM.

On to `O=C(/C=C/c1ccccc1)NCCC1CCN(Cc2ccccc2)CC1` [Example 1, (E)-3-Phenyl-N-[2-(1-benzylpiperidin-4-yl)ethyl]-2propenamide.hydrochloride], for which the IC50 was determined as 9.6 µM.

With `CS(=O)(=O)c1ccc(C=CC(=O)NCCC2CCN(Cc3ccccc3)CC2)cc1` [Example 4-10], the IC50 came to 1.6 µM.

Consider `O=C(C=Cc1cccs1)NCCC1CCN(Cc2ccccc2)CC1` [Example 4-5], for which the IC50 came out at 13 µM.

Regarding `O=C(C=Cc1ccco1)NCCC1CCN(Cc2ccccc2)CC1` [Example 4-4], the IC50 worked out at 9.9 µM.

Consider `O=C(C=Cc1ccc(Cl)cc1)NCCC1CCN(Cc2ccccc2)CC1` [Example 4-12], for which the IC50 is 9.2 µM.

Take `O=C(C=Cc1cccnc1)NCCC1CCN(Cc2ccccc2)CC1` [Example 4-3]: the IC50 was 2 µM.

Regarding `O=C(NCCC1CCN(Cc2ccccc2)CC1)C(=Cc1ccccc1)c1ccccc1` [Example 4-2], the IC50 worked out at 3.5 µM.

In the case of `CC(=O)N(CCC1CCN(Cc2ccccc2)CC1)C(=O)/C=C/c1ccccc1` [Example 3, (E)-3-Phenyl-N-acetyl-N-[2-(1-benzylpiperidin-4yl)ethyl]-2-propenamide.hydrochloride], the 50% inhibitory concentration (IC50) is 0.64 µM.

For the compound `N#Cc1ccc(C=CC(=O)NCCC2CCN(Cc3ccccc3)CC2)cc1` [Example 4-9], the IC50 was found to be 3.3 µM.

On to `CC(=Cc1ccccc1)C(=O)NCCC1CCN(Cc2ccccc2)CC1` [Example 4-1], for which the IC50 worked out at 8.1 µM.
